Data reported in patent publication US20260356901A1, “ONCOLYTIC PEPTIDES” (The Johns Hopkins University, priority 2023, published 2026).
Like-named read-outs stand apart in the source and are kept apart here. Square brackets hold non-standard residues; d marks the D form. Ends that are not written are not given here. Peptide text beside a SMILES is read from it. * marks the point of attachment. Dip = N[C@H](C(=O)O)C(c1ccccc1)c1ccccc1; Cbz = O=C(OCc1ccccc1)*; CH2F = FC*

Tests used:
4T1 cells = assay: LDH release assay (CyQUANT) in 4T1 cells; assay type: cell-based, murine; conditions: pre-treated 50 μM inhibitor 30 minutes, then 100 μM CKS1 6 hours
Procedure: FIG. 3A is a graph of cell viability of 4T1 murine triple negative breast cancer cells (TNBC) after 100 μM or 20 μM CKS1 treatment measured by real-time cell analyzer (RTCA). Means±SEM, representative of N=3. FIG. 3B is a graph of lactate dehydrogenase (LDH) release in 4T1 cells pre-treated with 50 μM pan-caspase inhibitor Z-VAD for 30 minutes or 50 μM RIPK1 inhibitor Nec-1s for 30 minutes then treated with 100 μM CKS1 for 6 hours. LDH release in the supernatant was measured by the CyQUANT LDH cytotoxicity assay. Means±SEM, N=3, Dunnett's test (***p<0.005). […] The release of LDH in the supernatant was measured and was normalized to the amount of LDH released from cells treated with lysis buffer. […]
FIG. 5A is a graph of the release of LDH in the supernatant measured after treating 4T1 cells with 100 μM of the indicated peptides for 6 hours. […]
To determine whether CKS1 functions as an oncolytic peptide, the cell viability of 4T1 murine breast cancer cells was observed after CKS1 treatment using xCELLigence Real-Time Cell Analyzer (Agilent). In this method, the binding of cells to gold electrodes is detected as electrical impedance and graphed as arbitrary units of cell index in real time. […] The release of lactate dehydrogenase (LDH) was also quantified in the culture media after CKS1 treatment. […]

[1] = test system: NIH/3T3 normal fibroblasts; assay: LDH release assay in NIH/3T3 cells; assay type: cell-based, murine; conditions: 6 hours
Procedure: (§1) FIG. 3A is a graph of cell viability of 4T1 murine triple negative breast cancer cells (TNBC) after 100 μM or 20 μM CKS1 treatment measured by real-time cell analyzer (RTCA). Means±SEM, representative of N=3. FIG. 3B is a graph of lactate dehydrogenase (LDH) release in 4T1 cells pre-treated with 50 μM pan-caspase inhibitor Z-VAD for 30 minutes or 50 μM RIPK1 inhibitor Nec-1s for 30 minutes then treated with 100 μM CKS1 for 6 hours. LDH release in the supernatant was measured by the CyQUANT LDH cytotoxicity assay. Means±SEM, N=3, Dunnett's test (***p<0.005). FIGS. 3C-3G are graphs of LDH release in human osteosarcoma U2OS cells, murine fibrosarcoma MCA205 cells, murine colon carcinoma CT26 cells, murine normal NIH/3T3 fibroblasts, and HUVECs, respectively, treated with the indicated concentration of CKS1 for 6 hours. The release of LDH in the supernatant was measured and was normalized to the amount of LDH released from cells treated with lysis buffer. Means±SEM, N=3, Dunnett's test (**p<0.01, ***p<0.005). FIG. 3H is a graph of the incorporation of BrdU in HUVECs treated with CKS1. Means±SEM, N=3, Dunnett's test (**p<0.01, ***p<0.005).
(§2) LDH assay 1.5×10^4 cells were seeded in a 96 well plate and incubated overnight. The cells were washed once, and the medium was replaced with serum free media. Cells were treated for the indicated time and concentration. […]

HUVECs = assay: LDH release assay in HUVECs; assay type: cell-based, human; conditions: 6 hours
Procedure: as §1, §2

MCA205 cells = assay: LDH release assay in MCA205 cells; assay type: cell-based, murine; conditions: MCA205, 6 hours
Procedure: as §1, §2

U2OS cells = assay: LDH release assay in U2OS cells; assay type: cell-based, human; conditions: 6 hours
Procedure: as §1, §2

CT26 cells = assay: LDH release assay in CT26 cells; assay type: cell-based, murine; conditions: CT26, 6 hours
Procedure: as §1, §2

Solubility in water = assay type: physicochemical; conditions: data not shown
Description: Peptides The peptides were synthesized by Genscript (Piscataway, NJ) using a solid-phase peptide synthesis technique. The purity was >90% as verified by HPLC and MS analyses. The peptides were solubilized in water.

healthy cells = assay: LDH assay against cancer cells not included in NCI-60 and healthy cells; assay type: cell-based
Procedure: LDH assay 1.5×10^4 cells were seeded in a 96 well plate and incubated overnight. The cells were washed once, and the medium was replaced with serum free media. Cells were treated for the indicated time and concentration. CyQUANT LDH cytotoxicity assay (Invitrogen, Carlsbad, CA) was used following the manufacturer's instructions.

[2] = other reported oncolytic peptides; cited from earlier work

With `CC(NC(=O)C(NC(=O)OCc1ccccc1)C(C)C)C(=O)NC(CC(=O)O)C(=O)CF` (stereo not drawn) [Z-VAD] (Cbz-Val-Ala-Asp-CH2F; configuration not given here) as the compound, how does the “inhibition of CKS1-induced LDH release by pretreatment” value (4T1 cells) read?
Its value is “did not inhibit the release of LDH”.

With NGRKACLNPASPIVKKIIEKMLNS [CKS1] as the compound, how does the “cell death (LDH release) in normal cells” value [1] read?
The value was “did not induce cell death”.

And the “cell death (LDH release) in normal cells” value (HUVECs)?
The value was “did not induce cell death”.

What about the “cytotoxicity (LDH release)” value (MCA205 cells) of the same compound?
The value was “effective”.

What about the “cytotoxicity (LDH release)” value (U2OS cells) of the same compound?
The value was “effective”.

What about the “cytotoxicity (LDH release)” value (CT26 cells) of the same compound?
Its value is “effective”.

What about the solubility in water (Solubility in water) of the same compound?
Its solubility in water is “high solubility in water”.

With NGRKAKLNPASIVKKIIKKILKS [NF27] as the compound, how does the “toxicity against healthy cells compared to cancer cells” value (healthy cells) read?
Its value is “significantly lower toxicity”.

With `CN1C(=O)NC(Cc2c[nH]c3c(Cl)cccc23)C1=O` (centres unmarked) [Nec-1s, necrostatin-1 stable] as the compound, how does the “inhibition of CKS1-induced LDH release by pretreatment” value (4T1 cells) read?
The value was “did not inhibit the release of LDH”.

Which solubility in water (Solubility in water) does the source give for “IVKKIIEKMLNS [SEQ ID NO: 42, IVKKIIEKMLNS]” here?
Its solubility in water is “not soluble in water”.

For `NCCCC[C@H](NC(=O)[C@@H](NC(=O)[C@H](Cc1c[nH]c2ccccc12)NC(=O)[C@H](CCCCN)NC(=O)[C@H](CCCCN)NC(=O)[C@H](Cc1c[nH]c2ccccc12)NC(=O)[C@H](Cc1c[nH]c2ccccc12)NC(=O)[C@H](CCCCN)NC(=O)[C@@H](N)CCCCN)C(c1ccccc1)c1ccccc1)C(N)=O` [LTX-315] (H-KKWWKKW[Dip]K-NH2), which solubility in water [2] is on record?
Its solubility in water is “not soluble in water”.
